The values that follow come from ChEMBL document CHEMBL1817623, “Sesterterpenes from the tropical sponge Coscinoderma sp” (J Nat Prod, 2011).

The MIC is the smallest concentration in the dilution series that meets the test's criterion for growth inhibition. Read a high MIC as weaker potency. By IC50 is commonly meant the concentration that gives 50% inhibition.

One experiment concerns Aspergillus fumigatus. As to the kind of experiment: Antimicrobial activity against Aspergillus fumigatus HIC 6094. In kind it is functional.
Another experiment has as its system K562. Briefly: Cytotoxicity against human K562 cells. In kind it is functional. Conditions: read-out: LC50 (the source's name).
For the next experiment, the system named is Salmonella typhimurium. As to the kind of experiment: Antimicrobial activity against Salmonella Typhimurium ATCC 14028. The experiment is classed as functional, Salmonella enterica subsp. enterica serovar Typhimurium. The conditions noted are these: Salmonella enterica.
In another experiment the test system is Escherichia coli. As to the kind of experiment: Antimicrobial activity against Escherichia coli ATCC 35270. The experiment is classed as functional.
A further experiment deals with Isocitrate lyase (Candida albicans, UniProt Q9P8Q7). As to the kind of experiment: Inhibition of Candida albicans isocitrate lyase.
The target of experiment [1] is Sodium/potassium-transporting ATPase. As to the kind of experiment: Inhibition of human Na(+)/K(+) ATPase assessed as reduction in ouabain-sensitive and K(+)-dependent cleavage of fluorescent pseudosubstrate 3-O-methylfluorescein phosphate by fluorometric method. In kind it is protein-complex assay.
Another experiment relates to Micrococcus luteus. As to the kind of experiment: Antimicrobial activity against Micrococcus luteus IFO 12708. The experiment is classed as functional.
For experiment [2], the system named is Trichophyton mentagrophytes. Briefly: Antimicrobial activity against Trichophyton mentagrophytes IFO 40996. The experiment is classed as functional.
Another experiment has as its system Bacillus subtilis. Briefly: Antimicrobial activity against Bacillus subtilis ATCC 6633. In kind it is functional.
Another experiment deals with T1, Sortase A (Staphylococcus aureus, UniProt Q9S446).
T1 sequence (Q9S446 whole entry): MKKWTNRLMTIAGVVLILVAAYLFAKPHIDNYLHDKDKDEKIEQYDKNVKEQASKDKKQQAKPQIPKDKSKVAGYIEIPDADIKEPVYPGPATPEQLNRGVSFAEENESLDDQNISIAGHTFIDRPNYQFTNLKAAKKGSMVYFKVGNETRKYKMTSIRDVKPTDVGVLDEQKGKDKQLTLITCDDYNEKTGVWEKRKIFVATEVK
As to the kind of experiment: Inhibition of recombinant Staphylococcus aureus ATCC 6538p sortase lacking the N-terminal membrane anchor domain expressed in Escherichia coli cells TOP10 using Dabcyl-QALPETGEE-Edans substrate measured after 1 hr by fluorescence S13 spectrophotometry.

The subject of a further experiment is Staphylococcus aureus. Briefly: Antimicrobial activity against Staphylococcus aureus ATCC 6538p. In kind it is functional.
A further experiment relates to Candida albicans. Briefly: Antimicrobial activity against Candida albicans ATCC 10231. In kind it is functional.
Another experiment has as its system Proteus vulgaris. Briefly: Antimicrobial activity against Proteus vulgaris ATCC 3851. The experiment is classed as functional.
The test system of the next experiment is Trichophyton rubrum. As to the kind of experiment: Antimicrobial activity against Trichophyton rubrum IFO 9185. In kind it is functional.

Chain of Isocitrate lyase (Q9P8Q7 whole entry): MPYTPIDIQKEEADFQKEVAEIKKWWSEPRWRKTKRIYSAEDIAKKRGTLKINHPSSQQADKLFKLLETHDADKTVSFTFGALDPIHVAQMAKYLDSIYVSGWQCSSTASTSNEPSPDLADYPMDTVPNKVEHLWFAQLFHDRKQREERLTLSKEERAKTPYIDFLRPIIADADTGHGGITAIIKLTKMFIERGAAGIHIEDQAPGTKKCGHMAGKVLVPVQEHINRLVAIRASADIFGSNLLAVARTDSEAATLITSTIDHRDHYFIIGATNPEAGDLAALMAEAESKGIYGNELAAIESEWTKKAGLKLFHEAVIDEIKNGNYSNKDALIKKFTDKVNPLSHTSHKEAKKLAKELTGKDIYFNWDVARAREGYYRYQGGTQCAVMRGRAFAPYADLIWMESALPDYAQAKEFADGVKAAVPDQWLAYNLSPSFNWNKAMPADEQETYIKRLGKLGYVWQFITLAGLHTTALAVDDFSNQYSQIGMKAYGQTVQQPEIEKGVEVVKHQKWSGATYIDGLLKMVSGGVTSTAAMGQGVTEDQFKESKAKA

As to `CC1=CCC[C@@H](C)[C@]1(C)CC/C(C)=C/CCC(CCCc1ccoc1)COS(=O)(=O)[O-].[Na+]` (some centres not stated) [HALISULFATE 2], the MIC against Aspergillus fumigatus was over 100 µg/mL; against Salmonella typhimurium, over 100 µg/mL; with Escherichia coli, over 100 µg/mL; against Micrococcus luteus it was over 100 µg/mL; in [2] it was over 100 µg/mL; in the experiment with Bacillus subtilis, 6.25 µg/mL. The MIC is over 100 µg/mL against Staphylococcus aureus, over 100 µg/mL against Candida albicans, 25 µg/mL in the experiment with Proteus vulgaris and over 100 µg/mL in the experiment on Trichophyton rubrum. The CC50 in the experiment with K562 is over 200 µM. In addition, the IC50 against Isocitrate lyase is 24 µM; in [1], 5 µM; on Sortase A it was over 200 µM.

For `CC1(C)CCC[C@]2(C)[C@H]3CC/C(=C\OS(=O)(=O)[O-])[C@H](CCc4ccoc4)[C@@]3(C)CC[C@@H]12.[Na+]` [SUVANINE'S SODIUM SALT], the MIC against Aspergillus fumigatus was over 100 µg/mL; against Salmonella typhimurium, 50 µg/mL; in the experiment on Escherichia coli, over 100 µg/mL; in the experiment with Micrococcus luteus, 25 µg/mL; in experiment [2] it was over 100 µg/mL; in the experiment on Bacillus subtilis it was 1.56 µg/mL. For the same molecule, the MIC in the experiment with Staphylococcus aureus is 25 µg/mL; against Candida albicans, over 100 µg/mL; against Proteus vulgaris, 25 µg/mL; with Trichophyton rubrum, over 100 µg/mL. For the same molecule, in the experiment with K562, the CC50 worked out at 16 µM. Besides, the results for the IC50 (against Isocitrate lyase; in [1]; on Sortase A) were 5 µM, 9 µM and over 200 µM, respectively.

`CC1(C)CCC[C@]2(C)[C@H]3CC/C(=C\OS(=O)(=O)[O-])[C@H](CCc4ccoc4)[C@@]3(C)CC[C@@H]12.C[N+](C)=C(N)N` [SUVANINE]: the MIC in the experiment with Aspergillus fumigatus was over 100 µg/mL; against Salmonella typhimurium it was 50 µg/mL; with Escherichia coli it was over 100 µg/mL; in the experiment on Micrococcus luteus, over 100 µg/mL; in [2], over 100 µg/mL; in the experiment with Bacillus subtilis it was 1.56 µg/mL. Besides, the minimal inhibitory concentration (MIC) is 100 µg/mL with Staphylococcus aureus, over 100 µg/mL against Candida albicans, over 100 µg/mL against Proteus vulgaris and over 100 µg/mL against Trichophyton rubrum. In the experiment on K562, the CC50 was over 200 µM. Further, the IC50 is 17 µM at Isocitrate lyase, 8 µM in experiment [1] and over 200 µM on Sortase A.
